Columns and labels:
[1] = Stability of Formulation 1 comprising HCl salt of Compound 1 for 12 hours at room temperature; format: physicochemical
Description: The term “concentration interval of compound 2” as used herein is corrected for the decay of fluorine-18.
Formulation 1 was prepared containing 3 μg/mL of Compound 1 (according to 3.3 μg/mL HCl salt of compound 1). The assay was analysed after preparation and after 12 hours storage according to the short shelf life of PET imaging tracer, typically expected between 6 and 10 hours. Eight individual batches were prepared and analysed for assay.
Table 1 indicates the results of stability testing after 12 hours of n=8 individually manufactured batches.
Minisart HY 0.2 μm is a sterile filter with PTFE hydrophobic membrane.

[2] = Hydrophobic filters and adsorption: Compound 1 concentration before and after sterile filtration of 10 mL Formulation 1; format: physicochemical; details: for Filtrate (%) / Adsorption: n=6
Description: Formulation 1 comprising compound 1 was prepared as indicated above and filtered using selected sterile filters. Adsorption of compound 1 was determined by measuring the concentration of Compound 1 before and after filtration of 10 mL of Formulation 1 and subsequent calculation of the adsorption. Table 2 indicates the results of adsorption experiments using different filters.

[3] = Formulation 1, Pall HP2002 0.2 μm, Versapor R hydrophobic

CNc1ccc(/C=C/c2ccc(OCCOCCOCCF)cc2)cc1 [Compound 1]
Visual Inspection ([1]; Formulation 1, 3 μg/mL Compound 1 (3.3 μg/mL HCl salt), 12 h storage at RT, n=8 batches): clear | ΔFiltration in % ([1]; Formulation 1, 12 h at RT, n=8, Minisart HY 0.2 μm): 1.9% | Content of Compound 1 in % after 12 h, after filtration (Minisart HY 0.2 μm) ([1]; Formulation 1, 12 h at RT, n=8, PTFE sterile filter, relative to concentration after preparation): 97.0% | Content of Compound 1 in % after 12 h, prior filtration ([1]; Formulation 1, 12 h at RT, n=8, relative to concentration after preparation (2.97 to 3.14 μg/mL)): 98.9% | Chemical stability in the formulation ([1]; Formulation 1, 12 hours, RT): chemically stable | Filtrate (%) ([2]; Formulation 1, Millex GV 0.22 μm (Millipore, SLGV033RS), PVDF): 94.0 ± 0.7% | Adsorption ([2]; Formulation 1, Millex GV 0.22 μm (SLGV033RS), PVDF): 6.0% | Adsorption ([2]; Formulation 1, Minisart HY 0.2 μm (16596-HYK), PTFE): 1.2% | Filtrate (%) ([2]; Formulation 1, Minisart HY 0.2 μm (Sartorius Stedim, 16596-HYK), PTFE): 98.8 ± 0.6% | Adsorption ([2]; Formulation 1, Minisart High Flow 0.2 μm (16532), polyethersulfone): 36.1% | Filtrate (%) ([2]; Formulation 1, Minisart High Flow 0.2 μm (Sartorius Stedim, 16532), polyethersulfone): 63.9 ± 1.8% | Adsorption ([2]; Formulation 1, Minisart SRP25 0.2 μm (17575), PTFE): 0.6% | Filtrate (%) ([2]; Formulation 1, Minisart SRP25 0.2 μm (Sartorius Stedim, 17575), PTFE): 99.4 ± 0.3% | Adsorption [2, 3]: 14.2% | Filtrate (%) [2, 3]: 85.8 ± 0.3% | Amount of compound 1 adsorbed onto the filter material ([2]; filter units containing PTFE and PVDF): low amount
